Results taken from a melting point compilation (Tetko et al.; mined from patent text by program, amines drawn as free bases though some values may be those of a salt).

First: COc1ccc(OC)c(Cc2n[nH]c3c2c(=O)n(-c2ccccc2)c2ncccc32)c1
Second: COc1cccc2c3c(c(=O)[nH]c12)CCN3c1ccccc1
The melting point of the first is higher: 248 to 250 °C for the first, 75 to 77 °C for the second.

First: CC(C)(C)OC(=O)CC[C@H](NC(=O)c1ccc(N(CCCl)CCCl)cc1)C(=O)OC(C)(C)C
Second: COC(=O)C(C)Oc1ccc(C(C)=O)cc1 (centres undefined)
The melting point of the first is higher: 114 to 116 °C for the first, 54.8 °C for the second.

First: CCCCc1ccc(NC(=O)OCc2ccccc2)c(=O)n1CC(=O)OC
Second: CCCS(=O)c1cc(OCCCS(=O)Cc2ccccc2)ccc1C (centres undefined)
The melting point of the first is higher: 111 to 112 °C for the first, 92 to 94 °C for the second.

Compared with `CSC1(C)C(=O)N(C(C)=O)c2ccc(C3=NNC(=O)SC3)cc21` (centres undefined), `CC(=O)c1cn(C)cc(-c2cccc(Cl)c2)c1=O` is lower in melting point: 198 °C for the first, 175 to 177 °C for the second.

First: CCCc1ccc(-n2nc(Cl)cc2-c2ccc(S(C)(=O)=O)cc2)cc1[N+](=O)[O-]
Second: Cc1cc(-c2cc(C(F)(F)F)nn2-c2ccc(S(N)(=O)=O)cc2)ccc1-c1cocn1
The melting point of the first is lower: 42 to 46 °C for the first, 112 to 114 °C for the second.

First: CCOC(=O)CS(=O)CCSc1cc(C(C)(C)C)c(O)c(C(C)(C)C)c1 (centres undefined)
Second: CC(C)(O)CC(=O)c1cc(C(C)(C)C)c(O)c(C(C)(C)C)c1
The melting point of the first is lower: 110 °C for the first, 113 to 114 °C for the second.

First: Cn1cnc2cc3[nH]c(-c4ccncc4)nc3cc21
Second: COc1ccc(-c2ccncc2)cc1Br
The melting point of the first is higher: over 280 °C for the first, 82 to 84 °C for the second.

Compared with `CC(C)OCCNC(=O)c1n[nH]cc1NC(=O)c1ccccc1`, `NC(=O)CNC(=O)COc1ccccc1` is higher in melting point: 121 to 122 °C for the first, 138 to 140 °C for the second.

Compared with `O=C(Oc1ccc(Oc2ccc(C(F)(F)F)cn2)cc1)N1CCS(=O)CC1`, `COc1ccc(CN2CCC(COc3ccc(F)cc3)CC2)cc1` is lower in melting point: 156 to 157 °C for the first, 79 to 81 °C for the second.

Compared with `CCCCCCCCNC(=O)n1cc(F)c(=O)[nH]c1=O`, `CCCCCCc1ccc(O)c(C(=O)O)c1` is lower in melting point: 98 to 100 °C for the first, 83 to 84 °C for the second.

First: c1ccc(C2CC(n3ccnc3)c3ccccc3N2)cc1 (centres undefined)
Second: Cc1ccc(S(=O)(=O)N2CC2c2ccccc2)cc1 (centres undefined)
The melting point of the first is higher: 170 to 172 °C for the first, 92 to 94 °C for the second.

First: NC(=O)CN1C(=O)C(NC(=O)c2cc3ccccc3[nH]2)C(Cc2ccccc2)Sc2ccccc21 (centres undefined)
Second: CCOC(=O)N[C@@H]1CCc2c(ccc(OCc3ccccc3)c2N(C)Cc2ccccc2)[C@H]1O (relative stereo)
The melting point of the first is higher: 275 °C for the first, 119 to 120 °C for the second.

First: Cc1cc2nc(NC(=O)C(C)(C)C)[nH]c(=O)c2[nH]1
Second: Cn1c(=O)c2c(ncn2COC(=O)C(C)(C)C)n(C)c1=O
The melting point of the first is higher: 156 to 157 °C for the first, 108 to 110 °C for the second.

First: COc1cc(OC)c2ncn(/C=C/C(=O)O)c(=O)c2c1
Second: COC(=O)c1cc(O)c2c(c1)c1ccccc1n2C
The melting point of the first is higher: 305 to 307 °C for the first, 204 to 206 °C for the second.

First: CCOC(=O)CCn1c(=O)c2ccccc2n(CCCCl)c1=O
Second: CN1C(=O)SC(=C(CO)c2cccc3ccccc23)C1=O
The melting point of the first is lower: 80 to 81 °C for the first, 112 to 113 °C for the second.

Compared with `CCn1ncnc1COc1nn2c(-c3ccccc3F)nncc2c1C(C)(C)CC`, `CC(C)(COc1ccc(C(N)=O)cn1)NCc1ccccc1` is higher in melting point: 89 to 92 °C for the first, 125 to 126 °C for the second.

First: COC(=O)c1ccc(=O)n(CCNC(=O)c2cnc3ccccc3c2)c1
Second: COc1ccc2cc(CN3CCC(NC(=O)NC(=O)c4ccccc4)CC3)ccc2c1
The melting point of the first is lower: 174 to 175 °C for the first, 243 to 244 °C for the second.

Going from `CCOC(=O)C(=CNCC1CCCO1)C(=O)c1ccc(Br)cc1Cl` (centres undefined) to `COc1cc(OCC2CCCO2)ccc1C=O` (centres undefined), the melting point falls from 136 °C to 73.3 °C.

First: N#Cc1cccc(-c2ccc(O)cc2)c1
Second: CC(=O)c1ccc(Nc2cccc(-c3cccnc3)c2)c(N)c1
The melting point of the first is lower: 135 to 141 °C for the first, 175 to 176 °C for the second.

First: CC1=CC(=O)C(C)=C(C)C1=O
Second: Cc1ccnc(C2C(=O)CC(C(C)C)CC2=O)c1 (centres undefined)
The melting point of the first is lower: 28 °C for the first, 104 to 106 °C for the second.

Compared with `O=CN1CCN(c2ccnc(Cl)n2)CC1`, `O=c1cc(-c2ccccc2)sc(N2CCOCC2)c1` is higher in melting point: 125 to 126 °C for the first, 160 to 161 °C for the second.

First: CCNC(=O)C1=C([Si](C)(C)C)S(=O)(=O)c2ccccc21
Second: CC1(C)OC(=O)N(Cc2ccccc2[N+](=O)[O-])C1=O
The melting point of the first is higher: 135 to 148 °C for the first, 134 °C for the second.

First: CC(=O)OC1CC2=CC(=NO)C3C4CCCC4(C)CCC3C2(C)C(OC(C)=O)C1 (centres undefined)
Second: C[C@]12CC[C@H](O)CC1=CCC1C2CC[C@@]2(C)C1CC[C@@H]2c1cn(Cc2ccccc2)nn1 (some centres undefined)
The melting point of the first is lower: 236 to 238 °C for the first, 286 to 287 °C for the second.

First: Cc1ccccc1-n1c(CF)nc2ccc(N)cc2c1=O
Second: CSc1nc(-c2ccc(=O)n(C)n2)c(-c2ccccc2)nc1N
The melting point of the first is lower: 195 to 196 °C for the first, 204 to 206 °C for the second.

Compared with `CC(C)(C)NCC(O)c1ccc(N)c(C#N)c1` (centres undefined), `CC(C)(O)Cc1cccc(O)c1` is lower in melting point: 181 to 185 °C for the first, 91 to 94 °C for the second.

First: CCCCNS(=O)(=O)c1cc(C(=O)O)cc(Cl)c1Cl
Second: CCOC(=O)COc1ccc(C(=O)c2ccn[nH]2)c(Cl)c1Cl
The melting point of the first is higher: 160 to 165 °C for the first, 147 to 149 °C for the second.

Compared with `Cc1nc2c(Cl)nccc2n1C`, `Cc1c(-c2ncc(Cl)cc2F)nn(C)c1C(N)=O` is higher in melting point: 197 to 198 °C for the first, 201 to 204 °C for the second.

Compared with `CN(c1cccc2c(F)c(C3=NCC(CC(=O)O)S3)[nH]c12)S(=O)(=O)c1cccs1` (centres undefined), `COc1ccccc1-c1ccc(C[C@@H](NC(=O)c2c(Cl)cccc2Cl)C(=O)O)cc1` is lower in melting point: 213 to 214 °C for the first, 195 °C for the second.

First: CCOC(=O)CN1C(=O)CN2CC(=O)NN=C21
Second: CCOC(=O)c1cn(CC(F)(F)F)c2c(C)cc(F)cc2c1=O
The melting point of the first is higher: 188 to 193 °C for the first, 154 to 158 °C for the second.

`CCOC(=O)C1=C(COCC(N)=S)NC(C)=C(C(=O)OC)C1c1ccccc1Cl` (centres undefined) and `CCOC(=O)c1c2ccc(CC(=O)NOC(=O)NCCCCN)ccc-2c(C(=O)OCC)c1N` cannot be ordered by melting point: 149 to 150 °C for the first, 150 °C for the second.

First: CC(C)c1cc(C(C)C)c(S(=O)(=O)n2cc3c4c(cccc42)C(=O)CC3)c(C(C)C)c1
Second: CC(C)CN(Cc1nnc(-c2ncn3c2CN(C)C(=O)c2c(Cl)cccc2-3)o1)CC(C)C
The melting point of the first is lower: 124 to 130 °C for the first, 161 to 163 °C for the second.

First: CC[C@@H]1N(c2ccc(C#N)c(Cl)c2C)C(=O)C[C@]1(C)O
Second: CCC(=S)C1=C(C)NC2=C(C1)C(=O)c1ccccc12
The melting point of the first is lower: 156 to 158 °C for the first, 240 °C for the second.

First: Nc1nc(CN2C(=O)C3(COc4cc5c(cc43)OCO5)c3ccccc32)cs1 (centres undefined)
Second: CCCCCN1C(=O)C2(COc3cc4nc(C)sc4cc32)c2ccccc21 (centres undefined)
The melting point of the first is higher: 230 to 235 °C for the first, 105 to 107 °C for the second.

First: COC(=O)c1c(Cc2ccc(S(=O)(=O)N3CCN(C)CC3)cc2)c(=O)c2ccc(Cl)cc2n1-c1ccccc1
Second: COc1ccc(S(=O)(=O)N2CCc3cccc(-c4cccnc4)c32)cc1
The melting point of the first is higher: 223 to 227 °C for the first, 179 to 181 °C for the second.

Compared with `CN1CCN(C(=O)C2CCC(Nc3ncc4ncnc(Nc5ccc(F)c(Cl)c5)c4n3)CC2)CC1` (centres undefined), `OC1CCN(c2ncc(-c3ccc(Cl)cc3Cl)cn2)CC1` is lower in melting point: 194 to 197 °C for the first, 122 to 124 °C for the second.

First: Cc1cc(Nc2cncc(Nc3ccc(Cl)c(OCCN(C)C)c3)n2)n[nH]1
Second: COc1cc2c(cc1OC)C(C(S)(C#N)c1ccc(Cl)cc1)=NCC2 (centres undefined)
The melting point of the first is higher: 145 to 147 °C for the first, 135 to 136 °C for the second.

First: COCOc1cc(F)ccc1-c1cc(-c2cccc(NC(=O)CN3CCCCC3)c2)c(C#N)c(NC(=O)c2ccco2)n1
Second: COc1ccc(-c2coc3cc(OCC(O)CNC4CCCCC4)ccc3c2=O)cc1OC (centres undefined)
The melting point of the first is higher: 140 to 142 °C for the first, 70 to 71 °C for the second.

Compared with `CCn1c(N)c(C(=O)NC)c(=O)c2ccc(-c3ccc(NS(C)(=O)=O)cc3)nc21`, `CCOP(=O)(Cc1ccc(NC(=O)CCc2cnoc2-c2ccc(F)cc2)cc1)OCC` is lower in melting point: over 300 °C for the first, 134 to 135 °C for the second.

First: CC(Cl)(Cl)C(NC(=O)c1cccc(Cl)c1)NC(=NC#N)Nc1ccc(C(F)(F)F)nc1 (centres undefined)
Second: COc1ccc(O)c(NC(=O)C(Br)c2ccccc2)c1 (centres undefined)
The melting point of the first is higher: 191 to 192 °C for the first, 145 to 147 °C for the second.

First: CC(C)(C)OC(=O)C=Cc1cc(Br)cc(Cc2cccnc2)c1
Second: Cc1ccccc1CC1(CO)CCN(C(=O)OC(C)(C)C)CC1
The melting point of the first is lower: 97 to 99 °C for the first, 104 to 106 °C for the second.

First: O=S1NC(Cc2csc3ccccc23)=NO1 (centres undefined)
Second: NC(=O)Cc1ccccc1OCCn1ccnc1
The melting point of the first is higher: 134 to 136 °C for the first, 116 to 118 °C for the second.

First: CCc1c(N2CCC(C(N)c3ccccn3)C2)c(F)c(N)c2c(=O)c(C(=O)O)cn(C3CC3F)c12 (centres undefined)
Second: CCS(=O)(=O)Nc1cc(-n2nc(C(F)F)n(C)c2=S)c(F)cc1C(N)=S
The melting point of the first is lower: 127 to 129 °C for the first, 183 °C for the second.

Compared with `O=Cc1cn(Cc2ccc(OCc3ccccc3)cc2)nc1OCc1ccc(OCc2ccccc2)cc1`, `OCc1cn(-c2ccccc2)nc1OCc1ccccc1` is lower in melting point: 138 to 139 °C for the first, 93 to 94 °C for the second.

Compared with `O=[PH]1Cc2ccc3ccccc3c2-c2c(ccc3ccccc23)C1`, `O=C(Oc1ccc(Cl)cc1)c1c2ccccc2nc2ccccc12` is lower in melting point: 242 to 246 °C for the first, 170 °C for the second.

First: CCCCC#CCC#CCC#CCCCCCCC(=O)O
Second: C=CCCCCCCCCC(=O)OC1CCC2C3CCC4=CC(=O)CCC4C3CCC12CC (centres undefined)
The melting point of the first is lower: 48.5 to 49.5 °C for the first, 87 to 88 °C for the second.

First: Fc1ccc(C(=S)N2CCCC(c3ccc(Cl)c(Cl)c3)=N2)cc1F
Second: CC1CC(=O)NN=C1c1ccc(-n2cnc3c2CCCC3)nc1 (centres undefined)
The melting point of the first is lower: 135 to 136 °C for the first, 234 to 235 °C for the second.

Compared with `CC(C)(C)c1cc(C=C(C#N)C#N)cc(I)c1O`, `CC(C)(C)OC(=O)NNC(=N)C(Cl)(Cl)Cl` is lower in melting point: 188 °C for the first, 150 °C for the second.

First: O=S1(=O)NC(C2CCCCC2)Nc2ccc(S(=O)(=O)c3ccccc3)cc21 (centres undefined)
Second: O=C(CC(NC(=O)Cc1ccccc1)c1ccccc1)Nc1n[nH]c(=S)s1 (centres undefined)
The melting point of the first is lower: 243 to 245 °C for the first, 249 to 250 °C for the second.

Going from `CC(=Cc1ccc2ccccc2c1)c1ccc(C(=O)O)cc1` to `O=C(Nc1ccc2ccc(-c3ccccc3Cl)nc2n1)c1ccccc1`, the melting point falls from 238 °C to 156 °C.

First: CN1CCN=C1C(Br)(Br)[N+](=O)[O-]
Second: Cn1cc(C(=O)NC(=O)N2CC2C#N)c([N+](=O)[O-])n1 (centres undefined)
The melting point of the first is higher: 88 to 90 °C for the first, 58 to 64 °C for the second.

First: CCNC(=C[N+](=O)[O-])NCCSCc1csc(CN(C)C)n1
Second: COc1cc(C)nc(NCn2cncn2)n1
The melting point of the first is lower: 89 to 90 °C for the first, 191 to 193 °C for the second.

Compared with `COc1ccc(NC(=O)NCc2ccc3c(c2)CN(C2CCC(=O)NC2=O)C3=O)cc1` (centres undefined), `O=CC[C@@H](O)[C@H](O)[C@H](O)CO` is lower in melting point: 255 to 257 °C for the first, 146 to 149 °C for the second.
